Laboratory results from publication PMC8464850, “Sulfonium Ligands of the α7 nAChR” (Molecules, 2021).

Experiments:
Assay type in all cases: cell-based
[1] = target: T1, muscle-type (α1β1εδ) receptors (Mus musculus, UniProt P02716+P04756+P20782); assay: Activation of muscle-type receptors; conditions: not shown
T1 construct: expressed in transfected cells; host or cells: Xenopus laevis oocytes (injected RNA)
Text: (§1) The human nAChR clones were obtained from Jon Lindstrom (University of Pennsylvania, Philadelphia, PA, USA). Mouse muscle subunit clones were obtained from Jim Boulter (Salk Institute, La Jolla, CA, USA) and Paul Gardner (Dartmouth, Hanover, NH, USA). The human resistance-to-cholinesterase 3 (RIC3) clone was obtained from Millet Treinin (Hebrew University, Jerusalem, Israel) and co-injected with α7 to improve the level and speed of α7 receptor expression without affecting the pharmacological properties of the receptors. Subsequent to linearization and purification of the plasmid DNAs, RNAs were prepared using the mMessage mMachine in vitro RNA transcription kit (Ambion, Austin, TX, USA).
Experiments were conducted using OpusXpress 6000A (Molecular Devices, Union City, CA, USA). […]
Solutions were applied from 96-well plates via disposable tips. […] The responses were calculated as both peak current amplitudes and net charge, as previously described. Data were collected at 50 Hz, filtered at 20 Hz for α7 receptors or filtered at 5 Hz for heteromeric nAChR, and analyzed by Clampfit (Molecular Devices, San Jose, CA, USA) and Excel (Microsoft, Redmond, WA, USA). Data were expressed as means ± SEM from at least four oocytes for each experiment and plotted with Kaleidagraph 4.5.2 (Abelbeck Software, Reading, PA, USA). Multi-cell averages were calculated for comparisons of complex responses. […]

human α7 receptors = target: T2, human α7 receptors (Homo sapiens, UniProt P36544); assay: Activation of human α7 receptors expressed in Xenopus oocytes, compounds applied alone (two-electrode voltage clamp, net charge); conditions: for ability to activate α7 when applied alone: 100 µM
T2 construct: expressed in transfected cells; host or cells: Xenopus laevis oocytes (injected RNA)
T2 sequence (P36544 23-502): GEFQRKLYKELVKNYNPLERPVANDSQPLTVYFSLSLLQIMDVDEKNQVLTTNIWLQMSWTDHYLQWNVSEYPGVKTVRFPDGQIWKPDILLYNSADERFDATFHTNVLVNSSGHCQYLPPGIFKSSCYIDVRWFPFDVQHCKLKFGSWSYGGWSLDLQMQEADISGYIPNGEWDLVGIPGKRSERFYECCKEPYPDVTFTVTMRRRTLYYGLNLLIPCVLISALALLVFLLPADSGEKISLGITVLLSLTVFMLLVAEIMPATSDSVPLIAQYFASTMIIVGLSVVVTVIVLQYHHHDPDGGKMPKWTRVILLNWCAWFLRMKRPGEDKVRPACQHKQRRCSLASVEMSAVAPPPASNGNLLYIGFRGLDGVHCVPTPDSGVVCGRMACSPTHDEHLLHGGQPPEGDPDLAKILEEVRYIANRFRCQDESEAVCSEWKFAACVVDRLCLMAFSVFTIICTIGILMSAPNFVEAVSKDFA
Procedure: The sulfonium compounds (Figure 1) were evaluated for their ability to activate human α7 receptors expressed in Xenopus oocytes (Figure 2A). Responses were measured as net charge. […] The average net-charge response to 100 µM S1 was 47 ± 6% of the control responses to 60 µM ACh from the same cells.
Figure 2 Responses of α7 nAChR to sulfonium compounds. (A) Net-charge responses to the applications of the test compounds applied at 100 µM. Net charge was calculated as the integrated area of inward current over a 120 s interval following the 30 s-pre-application period used to establish an initial baseline. […] (B) Averaged net-charge responses (±SEM, n = 8) to applications of S1 across a range of concentrations. Responses were measured relative to preceding 60 µM ACh control responses and then adjusted for the difference between ACh controls and ACh maximum responses. See text for curve-fit values.
as §1
Oocytes were surgically removed from mature female Xenopus laevis frogs (Nasco, Ft. Atkinson, WI, USA) as previously described. Frogs were maintained in the Animal Care Service facility of the University of Florida, and all procedures were approved by the University of Florida Institutional Animal Care and Use Committee (approval number 202002669).
Experiments were conducted using OpusXpress 6000A (Molecular Devices, Union City, CA, USA). Both the voltage and current electrodes were filled with 3 M KCl. Oocytes were voltage-clamped at −60 mV at room temperature (24 °C). The oocytes were bath-perfused with Ringer’s solution (115 mM NaCl, 2.5 mM KCl, 1.8 mM CaCl2, 10 mM HEPES, and 1 μM atropine, pH 7.2) at 2 mL/min for α7 receptors, or 4 mL/min for heteromeric nAChR. To evaluate the effects of experimental compounds, responses were compared to control ACh-evoked responses, defined as the average of two initial applications of ACh made before test applications. ACh control concentrations were 60 µM for α7 receptors; 100 µM for α4(3)β2(2) and α3β4 receptors; 30 µM for α4β2α6β2β3 and muscle-type (αβ1εδ) receptors; and 10 µM for α4(3)β2(2) and α4(2)β2(2)α5 receptors.
Solutions were applied from 96-well plates via disposable tips. Drug applications were 12 s in duration, followed by 181 s washout periods for α7 receptors, or 6 s in duration followed by 301 s washout periods for heteromeric nAChR. The responses were calculated as both peak current amplitudes and net charge, as previously described. Data were collected at 50 Hz, filtered at 20 Hz for α7 receptors or filtered at 5 Hz for heteromeric nAChR, and analyzed by Clampfit (Molecular Devices, San Jose, CA, USA) and Excel (Microsoft, Redmond, WA, USA). Data were expressed as means ± SEM from at least four oocytes for each experiment and plotted with Kaleidagraph 4.5.2 (Abelbeck Software, Reading, PA, USA). Multi-cell averages were calculated for comparisons of complex responses. Averages of the normalized data were calculated for each of the 10,322 points in each of the 206.44 s traces (acquired at 50 Hz), as well as the standard errors for those averages.

β3α4 β2α6β2 = target: T3, β3α4 β2α6β2 (Homo sapiens, UniProt P17787+P43681+Q15825); assay: Activation of heteromeric nAChR by S1: β3α4β2α6β2 concatamer
T3 construct: expressed in transfected cells; host or cells: Xenopus laevis oocytes (injected RNA)
T3 sequence (P43681 29-627 limits assumed): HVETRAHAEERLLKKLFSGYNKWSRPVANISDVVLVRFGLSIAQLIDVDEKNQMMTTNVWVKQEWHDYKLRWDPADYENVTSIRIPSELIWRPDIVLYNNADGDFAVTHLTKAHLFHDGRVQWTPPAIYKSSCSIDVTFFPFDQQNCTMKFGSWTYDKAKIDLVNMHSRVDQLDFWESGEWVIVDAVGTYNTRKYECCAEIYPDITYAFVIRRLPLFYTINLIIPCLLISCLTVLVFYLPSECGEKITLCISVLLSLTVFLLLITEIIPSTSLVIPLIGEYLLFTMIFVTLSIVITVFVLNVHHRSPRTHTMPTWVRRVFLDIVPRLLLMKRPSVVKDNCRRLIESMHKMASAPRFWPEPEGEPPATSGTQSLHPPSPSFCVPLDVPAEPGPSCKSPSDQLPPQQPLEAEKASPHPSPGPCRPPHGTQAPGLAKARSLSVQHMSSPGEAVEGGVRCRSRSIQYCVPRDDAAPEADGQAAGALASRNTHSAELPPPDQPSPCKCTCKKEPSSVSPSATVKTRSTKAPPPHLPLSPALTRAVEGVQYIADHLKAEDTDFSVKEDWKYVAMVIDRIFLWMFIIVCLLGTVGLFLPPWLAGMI
T3 sequence (P17787 26-502): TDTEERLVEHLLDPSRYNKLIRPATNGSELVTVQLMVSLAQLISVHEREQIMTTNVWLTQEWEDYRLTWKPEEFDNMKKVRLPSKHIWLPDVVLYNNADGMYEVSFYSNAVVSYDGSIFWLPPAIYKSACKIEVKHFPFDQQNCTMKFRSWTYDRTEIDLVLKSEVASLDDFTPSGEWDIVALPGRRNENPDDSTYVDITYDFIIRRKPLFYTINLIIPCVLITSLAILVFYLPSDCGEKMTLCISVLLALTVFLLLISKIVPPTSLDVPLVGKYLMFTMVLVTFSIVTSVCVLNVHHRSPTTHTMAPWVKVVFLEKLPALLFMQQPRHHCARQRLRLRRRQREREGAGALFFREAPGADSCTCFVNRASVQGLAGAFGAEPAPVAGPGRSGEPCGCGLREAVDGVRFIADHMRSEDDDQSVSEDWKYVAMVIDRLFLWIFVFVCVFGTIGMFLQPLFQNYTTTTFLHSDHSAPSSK
T3 sequence (Q15825 26-494): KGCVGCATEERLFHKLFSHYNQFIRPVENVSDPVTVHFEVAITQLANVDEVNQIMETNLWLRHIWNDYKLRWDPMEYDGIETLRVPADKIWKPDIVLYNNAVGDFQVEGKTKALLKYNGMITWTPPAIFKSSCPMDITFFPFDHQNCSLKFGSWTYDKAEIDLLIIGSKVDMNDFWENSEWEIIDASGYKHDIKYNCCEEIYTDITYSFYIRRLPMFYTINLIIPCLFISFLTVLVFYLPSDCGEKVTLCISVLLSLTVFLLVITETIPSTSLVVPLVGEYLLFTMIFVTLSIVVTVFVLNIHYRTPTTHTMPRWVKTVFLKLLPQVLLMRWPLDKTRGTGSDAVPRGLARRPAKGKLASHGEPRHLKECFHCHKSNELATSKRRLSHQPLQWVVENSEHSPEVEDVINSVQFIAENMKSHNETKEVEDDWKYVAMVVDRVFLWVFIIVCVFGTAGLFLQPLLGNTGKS
Text: (§2) Concatamers were used in order to obtain heteromeric receptors with known subunit composition. The β2-6-α4 concatamer was co-expressed with monomeric α4, β2, or α5 to obtain receptors with the composition α4(3)β2(2), α4(2)β2(3), or α4(2)β2(2)α5, respectively. A concatamer of five linked subunits was used to obtain the β3α4 β2α6β2 receptors. The α3β4 receptors were formed from the co-expression of α3 and β4 subunit monomers at equal ratios. Note that the data were initially measured relative to internal ACh control responses for each oocyte (Methods). Responses were subsequently adjusted for the relative values of the ACh controls and the ACh maximum responses for each of the various subtypes, determined in previous experiments.
(§3) Figure 6 Activation of heteromeric neuronal nAChR by S1. […] Data are the average peak currents (n = 6–8 oocytes ± SEM), measured relative to initial ACh control responses for each oocyte (concentrations listed in Methods). Responses were subsequently adjusted for the relative values of the ACh controls and the ACh maximum responses for each of the various subtypes, determined in previous experiments. […]
(§4) Solutions were applied from 96-well plates via disposable tips. […] The responses were calculated as both peak current amplitudes and net charge, as previously described. […] Multi-cell averages were calculated for comparisons of complex responses. […]

α4β2α5 = target: T4, α4β2α5 (Homo sapiens, UniProt P17787+P43681); assay: Activation of heteromeric nAChR by S1: α4(2)β2(2)α5
T4 construct: expressed in transfected cells; host or cells: Xenopus laevis oocytes (injected RNA)
T4 sequence (P17787 26-502): as the sequence (P17787 26-502) above
T4 sequence (P43681 29-627 limits assumed): as the sequence (P43681 29-627 limits assumed) above
Text: as §2, §3, §4

[2] = peak currents relative to ACh maximum

T1 sequence (P04756 21-457): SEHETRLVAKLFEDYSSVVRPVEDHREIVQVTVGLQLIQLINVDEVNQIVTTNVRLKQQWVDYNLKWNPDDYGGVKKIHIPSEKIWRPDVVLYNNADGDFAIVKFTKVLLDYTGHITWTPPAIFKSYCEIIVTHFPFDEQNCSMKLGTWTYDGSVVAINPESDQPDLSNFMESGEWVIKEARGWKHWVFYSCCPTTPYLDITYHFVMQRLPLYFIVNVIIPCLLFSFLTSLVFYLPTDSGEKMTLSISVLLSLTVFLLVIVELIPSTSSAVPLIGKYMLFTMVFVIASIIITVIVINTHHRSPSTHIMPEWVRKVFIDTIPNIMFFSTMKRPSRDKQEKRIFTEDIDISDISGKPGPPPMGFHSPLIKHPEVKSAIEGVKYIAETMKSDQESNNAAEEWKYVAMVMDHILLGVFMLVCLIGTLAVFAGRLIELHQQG
T1 sequence (P09690 24-501 partner): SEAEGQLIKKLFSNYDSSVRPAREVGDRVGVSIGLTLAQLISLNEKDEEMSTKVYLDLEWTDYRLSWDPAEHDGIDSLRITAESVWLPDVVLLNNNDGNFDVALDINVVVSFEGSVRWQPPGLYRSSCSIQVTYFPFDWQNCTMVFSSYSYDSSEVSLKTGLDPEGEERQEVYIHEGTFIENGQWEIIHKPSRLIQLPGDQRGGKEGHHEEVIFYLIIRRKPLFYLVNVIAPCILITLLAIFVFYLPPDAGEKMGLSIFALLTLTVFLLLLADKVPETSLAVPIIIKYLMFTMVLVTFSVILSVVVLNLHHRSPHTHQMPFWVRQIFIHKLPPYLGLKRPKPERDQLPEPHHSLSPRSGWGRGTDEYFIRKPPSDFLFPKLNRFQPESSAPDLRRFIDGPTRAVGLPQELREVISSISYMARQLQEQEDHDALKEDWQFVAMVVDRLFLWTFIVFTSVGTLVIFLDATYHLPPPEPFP
T1 sequence (P20782 21-493): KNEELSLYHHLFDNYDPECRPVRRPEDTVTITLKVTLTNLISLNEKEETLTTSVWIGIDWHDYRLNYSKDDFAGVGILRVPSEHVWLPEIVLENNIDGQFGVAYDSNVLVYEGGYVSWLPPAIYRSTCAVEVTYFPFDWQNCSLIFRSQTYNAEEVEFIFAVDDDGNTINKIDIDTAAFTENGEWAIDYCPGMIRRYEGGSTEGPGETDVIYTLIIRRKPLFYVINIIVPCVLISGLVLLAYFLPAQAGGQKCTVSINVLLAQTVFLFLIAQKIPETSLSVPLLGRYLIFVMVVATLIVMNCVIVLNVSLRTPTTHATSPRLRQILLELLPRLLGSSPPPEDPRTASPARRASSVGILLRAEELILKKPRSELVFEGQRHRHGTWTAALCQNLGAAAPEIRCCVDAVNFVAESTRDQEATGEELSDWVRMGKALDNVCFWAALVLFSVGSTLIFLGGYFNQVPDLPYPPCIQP
T1 sequence (P02716 25-520): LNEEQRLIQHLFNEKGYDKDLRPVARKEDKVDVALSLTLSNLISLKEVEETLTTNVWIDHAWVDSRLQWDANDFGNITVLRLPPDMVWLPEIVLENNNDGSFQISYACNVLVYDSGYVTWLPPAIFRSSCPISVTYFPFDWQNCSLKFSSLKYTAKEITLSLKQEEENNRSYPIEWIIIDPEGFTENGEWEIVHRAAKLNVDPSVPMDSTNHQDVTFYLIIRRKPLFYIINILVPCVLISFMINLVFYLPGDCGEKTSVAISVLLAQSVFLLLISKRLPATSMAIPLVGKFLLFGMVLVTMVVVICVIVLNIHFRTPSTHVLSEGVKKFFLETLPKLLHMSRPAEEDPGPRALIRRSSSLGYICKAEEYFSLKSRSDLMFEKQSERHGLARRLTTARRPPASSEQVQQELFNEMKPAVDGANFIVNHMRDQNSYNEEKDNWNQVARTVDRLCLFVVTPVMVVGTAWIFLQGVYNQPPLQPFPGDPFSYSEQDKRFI

In the case of `C[S+](C)C.[I-]` [Compound S1, trimethylsulfonium iodide], the “activation of muscle-type receptors” value [1] is reported as “not an effective activator”, the “average net-charge response, % of the control responses to 60 µM ACh” value (human α7 receptors; 100 µM compound applied alone, same cells) is reported as 47 ± 6% and the “ability to activate α7 when applied alone” value (human α7 receptors; net charge) is reported as “activated receptors”. For the same molecule, the “ability to activate α7 when applied alone” value (human α7 receptors; net charge, listed as trimethylsulfonium) was “partial agonist”, the Imax (human α7 receptors; net charge, n = 8, normalized to ACh maximum, Hill fit) was 84 ± 0.3 % ACh Imax and the EC50 (human α7 receptors; α7, Hill fit, Table 2, unit printed in text b9 only, read-out: EC50 (S1 Activation)) was 98 ± 0.5 µM. For the same molecule, the “IMax (S1 Activation)” value (human α7 receptors; α7, relative to ACh maximum, Hill fit, Table 2) was 0.84 ± 0.01, the “IMax (S1 Activation)” value (β3α4 β2α6β2; [2]) was 0.71 ± 0.35 and the EC50 (β3α4 β2α6β2; peak currents, unit inferred) was 333 ± 51 µM. For the same molecule, the “IMax (S1 Activation)” value (α4β2α5; [2]) was 0.50 ± 0.03 and the EC50 (α4β2α5; peak currents, unit inferred) was 114 ± 25 µM.
